# Legend:
# [1] = system: PTEN-P2/GFP tumor; test: In vivo effect of plumbagin combined with castration, pseudo-orthotopic chamber model (Example 5); set-up: species or system nude mice
# Description: Animal model and surgical techniques: Animal experiments have been approved as appropriate. All surgical procedures are performed in a sterile laminar flow hood. Dorsal skinfold chambers and surgical instruments are autoclaved before use. Saline used to keep tissue moist during surgical preparation is mixed with gentamicin ([…]).
# Male Nude mice (25-35 g body weight) are anesthetized (7.3 mg ketamine hydrochloride and 2.3 mg xylazine/100 g body weight, i.p.) and placed on a heating pad. Two symmetrical titanium frames are implanted into a dorsal skinfold, so as to sandwich the extended double layer of skin. A 15 mm full thickness circular layer is excised. The underlying muscle (M. cutaneous max.) and subcutaneous tissues are covered with a glass coverslip incorporated in one of the frames. After a recovery period of 2-3 days, prostate tissue and cancer cell spheroids are carefully placed in the chamber. Small circular Band Aids are applied on the backside of the chamber after surgery to prevent scratching. Before surgery, Buprenorphine (0.1 mg/kg) will be given IP. After surgery Meloxicam will be given in the drinking water for 4 days Meloxicam (5.0 mg/ml), is added at 35 μl per 100 ml of water to be medicated.
# Preparation of stroma: A male donor mouse is euthanized and the anterior prostate tissue is excised, put in a Petri dish with antibiotics (gentamicin 50 μl/ml), and minced with fine scissors into small pieces (<1 mm^2) for implantation.
# Preparation of tumor spheroids: Liquid overlay plates are generated using 1% Agarose melted in DMEM that is added to round-bottom 96-well plates (50 ul/well). […] Viability is determined using Trypan blue. […]. The size of the implanted spheroid can be determined precisely to minimize variations between animals. […]
# Intravital microscopy: Fluorescence microscopy is performed using a Mikron Instrument Microscope equipped with epi-illuminator and video-triggered stroboscopic illumination from a xenon arc (MV-7600, EG&G). […]
# [2] = system: prostate carcinoma cells; conditions: 5 umol/L; cited from earlier work
# [3] = system: hormone-refractory prostate cancer; conditions: Aziz et al., Cancer Res. 2008; cited from earlier work
# [4] = system: PTEN-P2/GFP tumor; test: In vivo effect of plumbagin added two weeks after castration, pseudo-orthotopic chamber model (Example 6); set-up: species or system nude mice; conditions: daily plumbagin ip 2 mg/kg, from two weeks after castration
# Description: Intravital microscopy: Fluorescence microscopy is performed using a Mikron Instrument Microscope equipped with epi-illuminator and video-triggered stroboscopic illumination from a xenon arc (MV-7600, EG&G). A silicon intensified target camera (SIT68, Dage-MTI) is attached to the microscope. A Hamamatsu image processor (Argus 20) with firmware version 2.50 (Hamamatsu Photonic System) is used for image enhancement and for the capture of images to a computer. A Zeiss Plan Neofluar 1.25×/0.035 objective is used to obtain an over-view of the chamber and to determine tumor size. A Zeiss A-Plan 10×/0.25 objective is used to capture images for calculation of vascular parameters. A Zeiss Achroplan 20×/0.5 W objective is used to capture images for calculation of mitotic and apoptotic indices. Our system permits evaluation of the following parameters.
# Mitotic and Apoptotic Indices: At each time point, two peripheral and two central ×20 fields of the tumor are captured with a FITC filter and an integrated frame grabber. Only mitotic figures in metaphase-telophase (MI) are included in the mitotic indices to exclude the potential artifact of nuclear membrane distortion. Apoptotic/Pyknotic nuclei are defined as H2B-GFP labeled nuclei with a cross sectional area <30 μm^2. Nuclear karyorrhexis (NK), easily distinguishable by the vesicular nuclear condensation and brightness of H2B-GFP, is included within this apoptotic indices.
# Platinum chambers were placed in the dorsal skinfold of nude mice by surgery. Two days later, minced prostate tissue from BalbC mice (syngeneic) was grafted into the chambers and allowed to vascularize for 7 to 10 days. Small tumor cells spheroids were implanted into each chamber. Tumor cells PTEN-P2 stably transfected with H2B-GFP fusion protein (PTEN-P2/GFP) were used in these experiments. The animals were surgically castrated about three weeks after implantation to inhibit androgen production. Surgical castration induces androgen deprivation, and is known in the art to effectively mimic clinical hormone therapy. Two weeks after castration, the mice were treated daily with plumbagin at 2 mg/kg ip.
smiles,measurement,setting,value
"CC1=CC(=O)c2c(O)cccc2C1=O [Plumbagin, 5-hydroxy-2-methylnaphthalene-1,4-dione]",efficiency of combination of plumbagin with castration versus either treatment alone,[1]; plumbagin 1 mg/kg intraperitoneal once/day soon after surgical castration,more efficient in vivo than either treatment alone
same,"tumor size, castration with plumbagin",[1]; plumbagin 1 mg/kg ip once/day plus surgical castration,significant decreases in tumor size
same,"tumor size, plumbagin only","[1]; plumbagin 1 mg/kg ip once/day, no castration",did not lead to a marked decrease in tumor size
same,"expression of PKCq, PI3K, AKT, activation of AP-1, NF-κB, Stat3",[2],inhibit expression of multiple molecular targets
same,effect on growth and invasion of hormone-refractory prostate cancer,[3],inhibited growth and invasion of hormone-refractory prostate cancer
same,apoptosis (AP) in tumor,[4],increasing apoptosis
same,efficiency of combination of plumbagin with castration versus castration alone,[4],more efficient in vivo than castration alone
same,mitosis (MI) in tumor,[4],mitosis increased
same,"tumor size, castration with plumbagin",[4],significant decreases in tumor size
